# Laboratory results reported in US11648287B2, “Composition for the treatment of intracellular bacterial infection” (priority 2017, dated 2023).
# Key:
# [1] = system: Raw 264.7 cells; assay: Propidium iodide influx, loss of viability of Raw 264.7 cells; assay type: cell-based, mouse; settings: TPPS2a 0.25 μg/ml + S. epidermidis (40:1); illuminated for 5 minutes
# Protocol: Raw 264.7 cells were seeded in a 96-well plate (polystyrene Nunclon™ clear TC plate, flat bottom, Greiner, The Netherlands) at a concentration of 1×10^5 cells/well and incubated overnight in RPMI at 37° C. in a humidified atmosphere containing 5% CO2 (unless specified otherwise). The cells were subsequently incubated overnight in 200 μl of RPMI containing gentamicin (15.6 to 1000 μg/ml), or incubated for 2 hours in RPMI containing photosensitizer TPPS2a (0.1 to 0.4 μg/ml) (PCI Biotech AS, Norway) which was replaced with refresh RPMI in order to remove unbound TPPS2a before incubation of another 2 hours. Raw 264.7 cells incubated in RPMI all the time were used as controls. […] After illumination, cells were incubated in refresh RPMI for 24 hours. The effect of gentamicin and of TPPS2a on the metabolic activity of Raw 264.7 cells was tested using MTT at 24 hours after incubation or by WST-1 assay directly and at 24 hours after illumination, respectively, according to the manufacturer's instruction (Cell MTT or WST-1 assay kit, Sigma-Aldrich, The Netherlands). […] The influx of propidium iodide was measured to quantify the loss of cell viability directly or at 24 hours after illumination.
# [2] = system: intracellular S. epidermidis in Raw 264.7 cells; assay: Intracellular antimicrobial activity assay; assay type: cell-based
# Protocol: After culture S. epidermidis bacteria were pelleted, re-suspended in 1.5 ml of PBS mixed with 0.5 ml of human serum (H1 serum, Cat […], Bio Whittaker, The Netherlands) and incubated for 20 minutes for opsonization. The inoculum was adjusted to 1.8×10^8 CFU/ml with RPMI. Medium of cells was replaced by 40 μl of the bacterial inoculum (bacteria to cell ratio of 40:1) and phagocytosis was allowed to proceed for 45 minutes. […] Raw 264.7 cells were detached by incubation in 100 μl of RPMI containing 0.5 mM EDTA. Detached cells were transferred to a vial and lysed with 40 μl of 1% saponine by incubation in a waterbath sonicator for 5 minutes (Transsonic 460, Elma Schmldbaur GmbH, Germany). The sonicate was centrifuged, and the pelleted bacteria were washed repeatedly and re-suspended in PBS before quantitative culture of serial 10-fold dilutions. Intracellular surviving S. epidermidis in Raw 264.7 cells were expressed as numbers of CFU per well. […] After illumination, cells were incubated overnight, lysed before quantitative culture of surviving bacteria.
# [3] = system: zebrafish embryos; assay: Toxicity of vancomycin alone or combined with TPCS2a and illumination for non-infected zebrafish embryos; assay type: in vivo; settings: vancomycin alone, 0.4 to 6.4 ng per non-infected embryo
# Protocol: The toxicity of vancomycin (Vanco) alone or combined with TPCS2a and illumination (T) for non-infected zebrafish embryos was examined. Doses of vancomycin (0.4, 1.6 or 6.4 ng per 1 nl of PBS), or combined with 2.5*10^−3 ng TPCS2a per 1 nl of PBS, were injected per embryo. […] The initial group sizes were 27 to 29 embryos.
# [4] = system: Staphylococcus aureus; settings: vancomycin alone 0.4 ng; 4300 CFU/embryo
# Protocol: To investigate whether PCI enhanced the antimicrobial efficacy of vancomycin against Staphylococcus aureus infection, S. aureus-infected zebrafish embryos were treated with vancomycin alone (0.4 ng) or combined with TPCS2a (2.5*10^−3 ng). PBS mock treatment was used as control. After injections, zebrafish embryos were maintained group-wise in petri-dishes containing E3 medium. The petri-dishes were placed on the Lumisource illumination device and embryos were illuminated for 10 minutes. Initial group sizes were 29 or 30 embryos. The difference between survival of the vancomycin alone group and the vancomycin-TPCS2a/illumination group was analyzed using Log-rank test, *p≤0.033.
# [5] = system: S. epidermidis strain O-47; assay: MIC and MBC of gentamicin for S. epidermidis in RPMI; assay type: cell-based; settings: S. epidermidis O-47; RPMI medium supplemented with 5% fetal calf serum
# Description: An “antibacterial agent” is an entity (e.g. a molecule) which has the ability to kill, damage or prevent the replication of selected bacteria under in vitro conditions, e.g. when in direct contact under culture conditions. The bacteria are preferably as described herein. (As referred to herein bacteria are referred to in both the singular and plural. In particular they are referred to in the singular when defining the type of bacteria to be targeted (i.e. the type, e.g. species, applicable to each bacterium) and in the plural when referring to the treatment to which they may be subjected (i.e. treatment of multiple microorganisms).) In particular, the antibacterial activity is assessed by determining the MIC or MBC value against one or more bacteria, e.g. against a Staphylococcus bacteria. Antibacterial activity may be determined by reference to the MIC value, minimum inhibition concentration (MIC), which is defined as the minimum concentration of an antimicrobial agent that inhibits visible growth of micro-organisms in specified liquid media after overnight incubation. Alternatively antibacterial activity may be determined by the minimum bactericidal concentration (MBC) which is the minimum concentration that kills 99.9% of the bacteria during this incubation period. […]
# [6] = system: Raw 264.7 cells; assay: MTT metabolic activity of Raw 264.7 cells (gentamicin cytotoxicity); assay type: cell-based, mouse; settings: after incubation of 24 hours
# Protocol: Raw 264.7 cells were seeded in a 96-well plate (polystyrene Nunclon™ clear TC plate, flat bottom, Greiner, The Netherlands) at a concentration of 1×10^5 cells/well and incubated overnight in RPMI at 37° C. in a humidified atmosphere containing 5% CO2 (unless specified otherwise). The cells were subsequently incubated overnight in 200 μl of RPMI containing gentamicin (15.6 to 1000 μg/ml), or incubated for 2 hours in RPMI containing photosensitizer TPPS2a (0.1 to 0.4 μg/ml) (PCI Biotech AS, Norway) which was replaced with refresh RPMI in order to remove unbound TPPS2a before incubation of another 2 hours. Raw 264.7 cells incubated in RPMI all the time were used as controls. The cells were protected from light using aluminium foil apart from illumination of 15 minutes using LumiSource (PCI Biotech AS, Norway). After illumination, cells were incubated in refresh RPMI for 24 hours. The effect of gentamicin and of TPPS2a on the metabolic activity of Raw 264.7 cells was tested using MTT at 24 hours after incubation or by WST-1 assay directly and at 24 hours after illumination, respectively, according to the manufacturer's instruction (Cell MTT or WST-1 assay kit, Sigma-Aldrich, The Netherlands). […] The influx of propidium iodide was measured to quantify the loss of cell viability directly or at 24 hours after illumination.
# [7] = system: zebrafish embryos; assay: Toxicity test of gentamicin alone or combined with TPCS2a in zebrafish embryos; assay type: in vivo; settings: for toxicity to zebrafish embryos (survival): graded doses injected per embryo; for maximal non-toxic concentrations: injection at 32 hpf, illumination 10 minutes, survival until 6 dpi
# Protocol: (§1) Injection into the blood circulation of zebrafish embryos via either the blood island or the duct of Cuvier (Benard et al., 2012, Journal of visualized experiments: JoVE, 61) was performed following the injection procedure described earlier (Zhang et al., 2017, supra). The volume of liquid per injection was adjusted to 1 nl for all injections in the present study.
# Toxicity test of gentamicin alone or combined with TPCS2a in zebrafish embryos Gentamicin or TPCS2a solution (both in PBS) or mixtures were injected into WT zebrafish embryos at 32 hours post fertilization (hpf). PBS was injected into control embryos. The embryos were protected from light using aluminium foil apart from illumination for 10 minutes using LumiSource, at 34 hpf. Survival of embryos (heartbeat, movement) was monitored daily until 6 dpi.
# [8] = system: S aureus ATCC 49230; assay: Treatment of S. aureus-infected zebrafish embryos with gentamicin alone or combined with TPCS2a; assay type: in vivo; settings: 0.4, 0.1 or 0.05 ng gentamicin, without or with 2.5*10^−3 ng TPCS2a; illumination 10 minutes
# Protocol: as §1
# Wild type zebrafish embryos were intravenously injected with a suitable dose of S aureus ATCC 49230 via the blood island at 30 hpf, and randomly divided into groups for different treatments. At 32 hpf 1 nl of PBS solution containing gentamicin alone (0.05, 0.1 or 0.4 μg/ml) or combined with 0.25 μg/ml TPCS2a (to provide 2.5×10^−3 ng) was intravenously injected. Control embryos received PBS injections. The embryos were protected from light using aluminium foil apart from illumination of 10 minutes, at 34 hpf, and separately maintained in E3 medium, which was refreshed daily. Survival was monitored until 6 dpi.
compound,measurement,setting,value
"O=S(=O)(O)c1ccc(-c2c3nc(c(-c4ccccc4)c4ccc([nH]4)c(-c4ccccc4)c4nc(c(-c5ccc(S(=O)(=O)O)cc5)c5ccc2[nH]5)C=C4)C=C3)cc1 [TPPS2a, tetraphenyl porphyrin disulphonate]",reduction of cell viability (influx of propidium iodide),[1],not statistically different from the control group
same,intracellular survival of S. epidermidis vs non-treated illuminated group,"[2]; TPPS2a only 0.25 μg/ml, with illumination",did not affect intracellular survival of S. epidermidis
CN[C@H](CC(C)C)C(=O)N[C@H]1C(=O)N[C@@H](CC(N)=O)C(=O)N[C@H]2C(=O)N[C@H]3C(=O)N[C@H](C(=O)N[C@H](C(=O)O)c4cc(O)cc(O)c4-c4cc3ccc4O)[C@H](O)c3ccc(c(Cl)c3)Oc3cc2cc(c3O[C@@H]2O[C@H](CO)[C@@H](O)[C@H](O)[C@H]2O[C@H]2C[C@](C)(N)[C@H](O)[C@H](C)O2)Oc2ccc(cc2Cl)[C@H]1O [vancomycin],toxicity to zebrafish embryos,[3],dose-dependent toxicity
same,survival of S. aureus-infected embryos,[4],had no effect on the survival of the infected embryos
gentamicin,minimal bactericidal concentration,[5],0.33 µg/mL
same,minimal inhibitory concentration,[5],0.04 µg/mL
same,extracellular concentrations that did not reduce the metabolic activity of Raw 264.7 cells,[6],up to 250 μg/ml
same,killing of intracellular S. epidermidis,"[2]; gentamicin only 1, 10 or 30 μg/ml, regardless of time of illumination",did not kill intracellular S. epidermidis
same,effect of PCI on the efficacy of gentamicin,"[2]; lowest dose of gentamicin, with PCI, in vitro",no effect of PCI
same,toxicity to zebrafish embryos (survival),[7],dose-dependent toxicity
same,maximal non-toxic concentrations,[7],2 ng/embryo
same,survival of S. aureus-infected embryos compared to PBS mock treatment,[8],significantly improved the survival
tetraphenyl chlorin disulphonate [TPCS2a],toxicity to zebrafish embryos (survival),[7],dose-dependent toxicity
same,maximal non-toxic concentrations,[7],2.5*10^−3 ng/embryo
